# Experimental data published in US20200179369A1, “TREATMENT OF DIABETIC NEPHROPATHY” (TAKEDA GMBH, priority 2015, published 2020).
# Experiments:
# [1] = tested on: type 1 collagen α1 chain mRNA; test: TGF-β-induced mRNA expression of type 1 collagen α1 chain in human mesangial cells; assay type: cell-based; conditions: in the presence of forskolin 1 μM, TGF-β 3 ng/mL, 24 h
# Experimental: (§1) Human mesangial cells were purchased from DS Pharma Biomedical (US). Compound A was obtained from Takeda GmbH, Konstanz, Germany. Forskolin and dimethyl sulfoxide (DMSO) were purchased from Wako Pure Chemical Industries, Ltd (Japan). Recombinant human TGF-β was purchased from R&D systems (USA).
# (§2) On day 0, human mesangial cells were seeded at a cell density of 2×10^5 cells/well in CSC complete medium (Cell Systems, USA) on type 1 collagen-coated 24-well plate (AGC TECHNO GLASS Co. Ltd., Japan) in an atmosphere of 95% air and 5% CO2 at 37° C. On day 1, the cells were serum starved with CMC medium which is not containing serum and growth factors. On day 2, Compound A at final concentrations of 0.001, 0.01, 0.1, 1 and 10 μM or DMSO (control) was added to the culture medium. […] For the measurement of mRNA levels of type 1 collagen α1 chain and fibronectin, total RNA isolated at 24 hours after forskolin/TGF-β stimulation was used. mRNA expression levels were measured by quantitative real-time RT-PCR methods with TaqMan gene expression master mix and ABI PRISM 9700 (Life Technologies, USA) with target mRNA specific primer and probe sets [Human connective tissue growth factor (Hs1026927_g1); Human plasminogen activator inhibitor-1 (Hs00167155_m1); Human type 1 collagenal chain (Hs00164004_m1); Human fibronectin (HS00365052_m1); Humanglyceraldehyde 3-phosphate dehydrogenase (HS2758991_g1)]. […]
# [2] = tested on: uninephrectomized db/db mice; test: Diabetic nephropathy in uninephrectomized db/db mice, 8 week treatment starting 12 weeks after the uninephrectomy; assay type: in vivo; conditions: 8 weeks starting 12 weeks after uninephrectomy
# Experimental: The experimental protocol is similar to the experimental protocol described above with the exception that the 8 week treatment with Compound A or irbesartan was started not already at 4 weeks after the uninephrectomy, but only 12 weeks after the uninephrectomy (i.e. when the increase of urinary albumin/creatinine ratio (UACR) is already in a much more advanced stage). Roflumilast was not used as a comparator in this experiment.
# Compound A (1, 3 and 10 mg/kg, QD) and irbesartan (50 and 100 mg/kg, QD) were suspended in 0.5% methyl cellulose solution and orally administered to mice for 8 weeks starting 12 weeks after the uninephrectomy.
# For evaluation of the effects of Compound A, statistical differences between vehicle- and Compound A treated groups were analyzed with one-tailed Williams' test for GHB, PG and BW and one-tailed Shirley-Williams' test for UACR. For irbesartan, statistical differences between vehicle- and irbesartan treated groups were analyzed with one-tailed Williams' test for UACR, GHb, PG and BW. The P-values less than 0.025 were considered statistically significant in one-tailed Williams' test or one-tailed Shirley-Williams' test.
# [3] = tested on: diet-induced obese (DIO) mice; test: Body weight, fat and lean mass, 4 weeks treatment in diet-induced obese (DIO) mice; assay type: in vivo; conditions: for body weight change from pretreatment (Day 0): mean ±S.D.
# Experimental: Male C57BL/6J mice were obtained from CLEA Japan, Inc. The mice were fed High fat diet D12451 (Research diets, Inc) from 5 week to 54-week old and water ad libitum.
# All mice were housed individually in animal cages and used for the study after 2 weeks of acclimation period. Animal groups (n=7) were treated with either vehicle (0.5 w/v % methylcellulose, p.o.) or Compound A (1 mg/kg or 3 mg/kg, p.o. suspension in 0.5w/v % methylcellulose solution) in the evening once a day for 4 weeks from 50 weeks of age. Body weight was measured 2 or 3 times per week. Regarding body composition fast mass and lean mass were measured.
# Body composition (fat mass and lean mass) was measured by Echo-MRI-900 (ALOKA Japan).
# All data are presented as mean ±S.D. For evaluation of the effects of Compound A, statistical significances between vehicle (p.o.) and Compound A treated groups were analysed with one-tailed Williams' test or Shirley-Williams test when the variances among the groups were homogeneous or heterogeneous, respectively. The p-values less than 0.025 were considered statistically significant in one-tailed Williams' test or Shirley-Williams test. Body weight change from pretreatment (Day 0) was calculated using the following formula: [(BW−BW at Day 0)/BW at Day 0]×100.
# fibronectin mRNA = test: TGF-β-induced mRNA expression of fibronectin in human mesangial cells; assay type: cell-based; conditions: in the presence of forskolin 1 μM, TGF-β 3 ng/mL, 24 h
# Experimental: as §1, §2
# [4] = tested on: plasminogen activator inhibitor-1 (PAI-1) mRNA; test: TGF-β-induced mRNA expression of plasminogen activator inhibitor-1 (PAI-1) in human mesangial cells; assay type: cell-based; conditions: 0.001-10 μM with forskolin 1 μM and TGF-β 3 ng/mL, 6 h
# Experimental: as §1, §2
smiles,measurement,setting,value
"CCOc1cc2c(cc1OC)C(c1ccc(=O)n(C)c1)=N[C@@H]1CC[C@@H](O)C[C@H]21 [Compound A, 5-((2R,4aR,10bR)-9-Ethoxy-2-hydroxy-8-methoxy-1,2,3,4,4a,10b-hexahydro-phenanthridin-6-yl)1-methyl-1H-pyridin-2-one]",concentration at which the inhibitory effect on mRNA expression of type 1 collagen α1 chain was further enhanced,[1],≥ 0.1 µM
same,effect on urinary albumin/creatinine ratio (UACR),[2]; 1 mg/kg QD oral,suppressed the increase of UACR
same,effect on urinary albumin/creatinine ratio (UACR),[2]; 3 mg/kg QD oral,reduced the UACR in the 3 mg/kg and 10 mg/kg group below the value at the beginning of the 8 weeks treatment period
same,effect on glucose plasma levels (PG),[2]; 10 mg/kg QD oral,statistical significant effect
same,effect on glycosylated hemoglobin (GHb),[2]; 10 mg/kg QD oral,statistical significant effect
same,effect on urinary albumin/creatinine ratio (UACR),[2]; 10 mg/kg QD oral,reduced the UACR in the 3 mg/kg and 10 mg/kg group below the value at the beginning of the 8 weeks treatment period
same,effect on body weight (BW),"[2]; 1, 3 and 10 mg/kg QD oral",Neither Compound A nor Irbesartan affected the body weight
same,effect on glucose plasma levels (PG),"[2]; 1, 3 and 10 mg/kg QD oral",reduced GHb and PG in a dose-dependant manner
same,effect on glycosylated hemoglobin (GHb),"[2]; 1, 3 and 10 mg/kg QD oral",reduced GHb and PG in a dose-dependant manner
same,body weight reduction corrected with vehicle (p.o.)-treated body weight change,[3]; 1 mg/kg p.o. once a day,−8.7±3.5%
same,body weight change from pretreatment (Day 0),[3]; 1 mg/kg p.o. once a day,−4.9±3.5%
same,body weight change from pretreatment (Day 0),[3]; 3 mg/kg p.o. once a day,−17.2±4.0%
same,effect on fat mass,[3]; 1 and 3 mg/kg p.o. once a day,dose dependently and significantly decreased fat mass
same,effect on lean mass,[3]; 1 and 3 mg/kg p.o. once a day,without affecting lean mass
same,concentration at which the inhibitory effect on mRNA expression of fibronectin was further enhanced,fibronectin mRNA,≥ 0.1 µM
same,effect on TGF-β-induced mRNA expression of PAI-1,[4],further suppressed by the treatment with Compound A in a concentration-dependent manner
